Measurements published in patent US8143408B2, “N-(8-heteroaryltetrahydronaphtalene-2yl) or N-(5-heteroarylchromane-3-yl) carboxamide derivatives for the treatment of pain” (AstraZeneca AB, priority 2007, dated 2012).
pIC50: −log10 of the molar value.

Target: T1, Nav1.7 voltage-gated sodium channel (Homo sapiens, UniProt Q15858)
T1 construct: Gene(s) encoding the full-length protein of the voltage-gated sodium channel of interest are cloned and expressed; expressed in transfected cells
Test: Whole-cell voltage clamp electrophysiology assay
Type: cell-based
Conditions: cells stably expressing the voltage-gated sodium channel of interest
In short: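 Cells expressing full-length channel, exposed to drug by integrated pipetting on automated patch-clamp platforms or by microperfusion in conventional whole-cell patch clamp. Channels activated by a voltage protocol depolarising from a defined holding potential; buffers per platform manufacturer.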

T1 sequence (Q15858 whole entry): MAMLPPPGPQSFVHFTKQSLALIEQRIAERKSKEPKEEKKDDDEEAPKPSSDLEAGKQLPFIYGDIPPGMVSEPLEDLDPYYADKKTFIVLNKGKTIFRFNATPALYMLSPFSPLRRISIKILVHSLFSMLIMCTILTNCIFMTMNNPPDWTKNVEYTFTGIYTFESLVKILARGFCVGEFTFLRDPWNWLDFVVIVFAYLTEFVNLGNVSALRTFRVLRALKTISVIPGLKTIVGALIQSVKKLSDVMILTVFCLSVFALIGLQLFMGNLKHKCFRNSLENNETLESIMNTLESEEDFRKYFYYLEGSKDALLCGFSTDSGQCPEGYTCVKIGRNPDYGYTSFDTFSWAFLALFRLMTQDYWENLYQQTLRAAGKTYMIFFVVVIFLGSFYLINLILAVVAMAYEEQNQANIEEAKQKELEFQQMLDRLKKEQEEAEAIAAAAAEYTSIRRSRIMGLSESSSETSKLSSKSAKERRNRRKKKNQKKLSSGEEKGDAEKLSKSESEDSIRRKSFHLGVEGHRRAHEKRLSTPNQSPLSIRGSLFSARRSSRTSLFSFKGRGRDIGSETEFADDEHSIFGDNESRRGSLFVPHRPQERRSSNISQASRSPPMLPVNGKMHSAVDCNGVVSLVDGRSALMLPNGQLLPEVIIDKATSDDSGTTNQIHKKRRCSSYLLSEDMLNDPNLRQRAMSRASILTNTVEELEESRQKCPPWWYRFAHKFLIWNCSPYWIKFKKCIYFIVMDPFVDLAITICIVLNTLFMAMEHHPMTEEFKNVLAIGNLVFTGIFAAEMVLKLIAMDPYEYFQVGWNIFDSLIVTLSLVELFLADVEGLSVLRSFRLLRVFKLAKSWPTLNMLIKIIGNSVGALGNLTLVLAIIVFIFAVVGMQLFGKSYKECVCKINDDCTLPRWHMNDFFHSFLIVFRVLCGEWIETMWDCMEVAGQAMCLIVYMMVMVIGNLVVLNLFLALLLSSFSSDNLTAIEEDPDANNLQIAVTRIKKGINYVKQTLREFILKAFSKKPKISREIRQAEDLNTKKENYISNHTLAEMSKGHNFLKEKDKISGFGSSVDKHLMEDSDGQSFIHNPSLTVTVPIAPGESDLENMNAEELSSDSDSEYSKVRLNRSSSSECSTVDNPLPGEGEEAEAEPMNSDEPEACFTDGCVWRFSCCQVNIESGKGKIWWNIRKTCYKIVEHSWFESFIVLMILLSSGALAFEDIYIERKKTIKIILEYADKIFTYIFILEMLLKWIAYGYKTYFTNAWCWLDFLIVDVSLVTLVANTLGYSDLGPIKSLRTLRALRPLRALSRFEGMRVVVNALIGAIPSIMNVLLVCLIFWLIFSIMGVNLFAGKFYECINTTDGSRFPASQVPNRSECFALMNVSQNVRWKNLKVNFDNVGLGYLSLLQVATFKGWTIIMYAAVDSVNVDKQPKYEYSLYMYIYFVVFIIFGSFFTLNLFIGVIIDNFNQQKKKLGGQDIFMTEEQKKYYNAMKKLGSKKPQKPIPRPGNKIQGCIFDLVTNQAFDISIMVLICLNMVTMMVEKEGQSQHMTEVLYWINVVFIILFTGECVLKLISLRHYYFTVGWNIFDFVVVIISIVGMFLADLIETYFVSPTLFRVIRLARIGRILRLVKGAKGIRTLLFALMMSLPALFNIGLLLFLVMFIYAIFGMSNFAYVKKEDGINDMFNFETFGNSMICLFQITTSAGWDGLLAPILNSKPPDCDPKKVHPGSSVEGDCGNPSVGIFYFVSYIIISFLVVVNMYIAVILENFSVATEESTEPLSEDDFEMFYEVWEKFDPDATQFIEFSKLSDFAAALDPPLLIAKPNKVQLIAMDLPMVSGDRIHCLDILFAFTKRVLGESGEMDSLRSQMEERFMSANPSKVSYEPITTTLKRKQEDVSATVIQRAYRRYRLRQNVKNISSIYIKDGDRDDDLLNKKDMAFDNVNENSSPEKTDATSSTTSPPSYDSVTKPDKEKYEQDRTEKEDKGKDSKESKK

In order of rising pIC50:
1. COc1cc(-c2cccc3c2C[C@H](NC(=O)c2ccc(OCC(F)(F)F)nc2)CO3)c(OC)nn1 [Example 98, N-[(3S)-5-(3,6-dimethoxypyridazin-4-yl)-3,4-dihydro-2H-chromen-3-yl]-6-(2,2,2-trifluoroethoxy)nicotinamide]  5.20
2. COc1cnc(C(=O)N[C@@H]2COc3cccc(-c4cnc(OC)nc4)c3C2)cn1 [Example 83, 5-methoxy-N-[(3S)-5-(2-methoxypyrimidin-5-yl)-3,4-dihydro-2H-chromen-3-yl]pyrazine-2-carboxamide]  5.30
3. COc1ncc(-c2cccc3c2C[C@H](NC(=O)c2cnc(OC(C)C)nc2C)CO3)cn1 [Example 92, 2-isopropoxy-N-[(3S)-5-(2-methoxypyrimidin-5-yl)-3,4-dihydro-2H-chromen-3-yl]-4-methylpyrimidine-5-carboxamide]  5.30
4. COc1ncc(-c2cccc3c2C[C@H](NC(=O)c2ccnc(OC(C)C)c2)CO3)cn1 [Example 107, 2-isopropoxy-N-[(3S)-5-(2-methoxypyrimidin-5-yl)-3,4-dihydro-2H-chromen-3-yl]isonicotinamide]  5.40
5. Cc1cnc(-c2cccc3c2C[C@H](NC(=O)c2ccc(OCCCF)nc2)CO3)c(C)n1 [Example 108, N-[(3S)-5-(3,5-dimethylpyrazin-2-yl)-3,4-dihydro-2H-chromen-3-yl]-6-(3-fluoropropoxy)nicotinamide]  5.40
6. CC(C)Oc1ccc(C(=O)N[C@@H]2CCc3cccc(-c4ccnnc4)c3C2)cn1 [Example 78, 6-isopropoxy-N-[(2R)-8-pyridazin-4-yl-1,2,3,4-tetrahydronaphthalen-2-yl]nicotinamide]  5.50
7. O=C(N[C@@H]1COc2cccc(-c3ccnnc3)c2C1)c1ccc(OCC(F)(F)F)nc1 [Example 80, N-[(3S)-5-pyridazin-4-yl-3,4-dihydro-2H-chromen-3-yl]-6-(2,2,2-trifluoroethoxy)nicotinamide]  5.60
8. COc1ncc(-c2cccc3c2C[C@H](NC(=O)c2ccc(OC(C)C)nc2)CC3)cn1 [Example 82, 6-isopropoxy-N-[(2R)-8-(2-methoxypyrimidin-5-yl)-1,2,3,4-tetrahydronaphthalen-2-yl]nicotinamide]  5.60
9. Cc1ncc(-c2cccc3c2C[C@H](NC(=O)c2ccnc(OC(C)C)c2)CO3)cn1 [Example 104, 2-isopropoxy-N-[(3S)-5-(2-methylpyrimidin-5-yl)-3,4-dihydro-2H-chromen-3-yl]isonicotinamide]  5.60
10. COc1ncc(-c2cccc3c2C[C@H](NC(=O)c2cnc(OCC(F)(F)F)nc2C)CO3)cn1 [Example 89, N-[(3S)-5-(2-methoxypyrimidin-5-yl)-3,4-dihydro-2H-chromen-3-yl]-4-methyl-2-(2,2,2-trifluoroethoxy)pyrimidine-5-carboxamide]  5.70
11. CCCN(CCC)C(=O)c1ccc(C(=O)N[C@@H]2COc3cccc(-c4cnc(OC)nc4)c3C2)cn1 [Example 110, N^5-[(3S)-5-(2-methoxypyrimidin-5-yl)-3,4-dihydro-2H-chromen-3-yl]-N^2,N^2-dipropylpyridine-2,5-dicarboxamide]  5.70
12. COc1ncc(-c2cccc3c2C[C@H](NC(=O)c2cnc(OCC(F)(F)F)nc2C)CC3)cn1 [Example 90, N-[(2R)-8-(2-methoxypyrimidin-5-yl)-1,2,3,4-tetrahydronaphthalen-2-yl]-4-methyl-2-(2,2,2-trifluoroethoxy)pyrimidine-5-carboxamide]  5.80
13. COc1cnc(C(=O)N[C@@H]2COc3cccc(-c4cnc(OC)c(F)c4)c3C2)cn1 [Example 79, N-[(3S)-5-(5-fluoro-6-methoxypyridin-3-yl)-3,4-dihydro-2H-chromen-3-yl]-5-methoxypyrazine-2-carboxamide]  5.90
14. COc1ncc(-c2cccc3c2C[C@H](NC(=O)c2ccc(OC4CCC4)nc2)CO3)cc1F [Example 94, 6-(cyclobutyloxy)-N-[(3S)-5-(5-fluoro-6-methoxypyridin-3-yl)-3,4-dihydro-2H-chromen-3-yl]nicotinamide]  6.10
15. CCOc1ncc(-c2cccc3c2C[C@H](NC(=O)c2ccc(OCC(F)(F)F)nc2)CO3)cn1 [Example 93, N-[(3S)-5-(2-ethoxypyrimidin-5-yl)-3,4-dihydro-2H-chromen-3-yl]-6-(2,2,2-trifluoroethoxy)nicotinamide]  6.20
16. COc1ncc(-c2cccc3c2C[C@H](NC(=O)c2ccc(OCC(F)(F)F)nc2)CC3)cn1 [Example 85, N-[(2R)-8-(2-methoxypyrimidin-5-yl)-1,2,3,4-tetrahydronaphthalen-2-yl]-6-(2,2,2-trifluoroethoxy)nicotinamide]  6.30
17. COc1ccc(-c2cccc3c2C[C@H](NC(=O)c2ccc(OC(C)C)nc2)CO3)cn1 [Example 76, 6-isopropoxy-N-[(3S)-5-(6-methoxypyridin-3-yl)-3,4-dihydro-2H-chromen-3-yl]nicotinamide]  6.40
18. O=C(N[C@@H]1COc2cccc(-c3ccnnc3)c2C1)c1ccc(OCCC(F)(F)F)nc1 [Example 81, N-[(3S)-5-pyridazin-4-yl-3,4-dihydro-2H-chromen-3-yl]-6-(3,3,3-trifluoropropoxy)nicotinamide]  6.40
19. COc1ncc(-c2cccc3c2C[C@H](NC(=O)c2ccc(OCCC(F)(F)F)nc2)CC3)cn1 [Example 84, N-[(2R)-8-(2-methoxypyrimidin-5-yl)-1,2,3,4-tetrahydronaphthalen-2-yl]-6-(3,3,3-trifluoropropoxy)nicotinamide]  6.40
20. COc1ncc(-c2cccc3c2C[C@H](NC(=O)c2ccc(OCC(F)(F)F)nc2)CO3)cc1F [Example 88, N-[(3S)-5-(5-fluoro-6-methoxypyridin-3-yl)-3,4-dihydro-2H-chromen-3-yl]-6-(2,2,2-trifluoroethoxy)nicotinamide]  6.40
21. COc1ncc(-c2cccc3c2C[C@H](NC(=O)c2ccc(OCCC(F)(F)F)nc2)CO3)cc1F [Example 97, N-[(3S)-5-(5-fluoro-6-methoxypyridin-3-yl)-3,4-dihydro-2H-chromen-3-yl]-6-(3,3,3-trifluoropropoxy)nicotinamide]  6.40
22. Cc1cncc(-c2cccc3c2C[C@H](NC(=O)c2ccc(OCC(F)(F)F)nc2)CO3)n1 [Example 99, N-[(3S)-5-(6-methylpyrazin-2-yl)-3,4-dihydro-2H-chromen-3-yl]-6-(2,2,2-trifluoroethoxy)nicotinamide]  6.40
23. COc1ncc(-c2cccc3c2C[C@H](NC(=O)c2ccc(OCCCF)nc2)CO3)cn1 [Example 100, 6-(3-fluoropropoxy)-N-[(3S)-5-(2-methoxypyrimidin-5-yl)-3,4-dihydro-2H-chromen-3-yl]nicotinamide]  6.40
24. COc1ncc(-c2cccc3c2C[C@H](NC(=O)c2ccc(OC4CCC4)nc2)CO3)cn1 [Example 106, 6-(cyclobutyloxy)-N-[(3S)-5-(2-methoxypyrimidin-5-yl)-3,4-dihydro-2H-chromen-3-yl]nicotinamide]  6.60
25. COc1ncc(-c2cccc3c2C[C@H](NC(=O)c2ccc(C(=O)NCCC(C)C)nc2)CO3)cn1 [Example 111, N^5-[(3S)-5-(2-methoxypyrimidin-5-yl)-3,4-dihydro-2H-chromen-3-yl]-N^2-(3-methylbutyl)pyridine-2,5-dicarboxamide]  6.60
26. O=C(N[C@@H]1CCc2cccc(-c3cccnc3F)c2C1)c1ccc(OCC(F)(F)F)nc1 [Example 87, N-[(2R)-8-(2-fluoropyridin-3-yl)-1,2,3,4-tetrahydronaphthalen-2-yl]-6-(2,2,2-trifluoroethoxy)nicotinamide]  6.70
27. CCc1ncc(-c2cccc3c2C[C@H](NC(=O)c2ccc(OCC(F)(F)F)nc2)CO3)cn1 [Example 95, N-[(3S)-5-(2-ethylpyrimidin-5-yl)-3,4-dihydro-2H-chromen-3-yl]-6-(2,2,2-trifluoroethoxy)nicotinamide]  6.80
28. Cc1ncc(-c2cccc3c2C[C@H](NC(=O)c2ccc(OCCCF)nc2)CO3)cn1 [Example 101, 6-(3-fluoropropoxy)-N-[(3S)-5-(2-methylpyrimidin-5-yl)-3,4-dihydro-2H-chromen-3-yl]nicotinamide]  6.80
29. COc1ccc(-c2cccc3c2C[C@H](NC(=O)c2ccc(OCCC(F)(F)F)nc2)CO3)cn1 [Example 77, N-[(3S)-5-(6-methoxypyridin-3-yl)-3,4-dihydro-2H-chromen-3-yl]-6-(3,3,3-trifluoropropoxy)nicotinamide]  6.90
30. O=C(N[C@@H]1COc2cccc(-c3cnc(C4CC4)nc3)c2C1)c1ccc(OCC(F)(F)F)nc1 [Example 109, N-[(3S)-5-(2-cyclopropylpyrimidin-5-yl)-3,4-dihydro-2H-chromen-3-yl]-6-(2,2,2-trifluoroethoxy)nicotinamide]  6.90
31. Cc1ncc(-c2cccc3c2C[C@H](NC(=O)c2ccc(OCC(F)(F)F)nc2)CO3)cn1 [Example 102, N-[(3S)-5-(2-methylpyrimidin-5-yl)-3,4-dihydro-2H-chromen-3-yl]-6-(2,2,2-trifluoroethoxy)nicotinamide]  7.00
32. O=C(N[C@@H]1COc2cccc(-c3ccc4nccn4c3)c2C1)c1ccc(OCC(F)(F)F)nc1 [Example 91, N-[(3S)-5-imidazo[1,2-a]pyridin-6-yl-3,4-dihydro-2H-chromen-3-yl]-6-(2,2,2-trifluoroethoxy)nicotinamide]  7.10
33. Cc1ncc(-c2cccc3c2C[C@H](NC(=O)c2ccc(OC4CCC4)nc2)CO3)cn1 [Example 105, 6-(cyclobutyloxy)-N-[(3S)-5-(2-methylpyrimidin-5-yl)-3,4-dihydro-2H-chromen-3-yl]nicotinamide]  7.20
34. O=C(N[C@@H]1COc2cccc(-c3cnc(C4CC4)nc3)c2C1)c1ccc(OCCCF)nc1 [Example 96, N-[(3S)-5-(2-cyclopropylpyrimidin-5-yl)-3,4-dihydro-2H-chromen-3-yl]-6-(3-fluoropropoxy)nicotinamide]  7.30
